Results: the supplement of paper PMC8967900

Key:
Experiment in all cases: selective drug sensitivity score (sDSS, relative to normal bone marrow) (sDSS (score)); higher = more potent and effective on the cell line relative to normal bone marrow cells
Details in all cases: 72 h
MHH-CALL-3 = system: MHH-CALL-3
MOLT-14 = system: MOLT-14
COG-LL-402h = system: COG-LL-402h
MOLT-16 = system: MOLT-16
JURKAT = system: JURKAT
LC4-1 = system: LC4-1
COG-LL-319h = system: COG-LL-319h
PF-382 = system: PF-382
DND-41 = system: DND-41
TANOUE = system: TANOUE
P12-ICHIKAWA = system: P12-ICHIKAWA
NALL-1 = system: NALL-1
697 = system: 697
HPB-ALL = system: HPB-ALL
COG-LL-332h = system: COG-LL-332h
MOLT-4 = system: MOLT-4
RCH-ACV = system: RCH-ACV
REH = system: REH
KASUMI-10 = system: KASUMI-10
CCRF-HSB2 = system: CCRF-HSB2
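Further: ALL cell lines in 384-well plates, five doses spanning 10,000-fold, each plate scaled between vehicle and 100 µmol/L benzalkonium chloride controls, sDSS an adapted area-under-curve metric.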

Row | SMILES | selective drug sensitivity score (MHH-CALL-3) | selective drug sensitivity score (MOLT-14) | selective drug sensitivity score (COG-LL-402h) | selective drug sensitivity score (MOLT-16) | selective drug sensitivity score (JURKAT) | selective drug sensitivity score (LC4-1) | selective drug sensitivity score (COG-LL-319h) | selective drug sensitivity score (PF-382) | selective drug sensitivity score (DND-41) | selective drug sensitivity score (TANOUE) | selective drug sensitivity score (P12-ICHIKAWA) | selective drug sensitivity score (NALL-1) | selective drug sensitivity score 697 | selective drug sensitivity score (HPB-ALL) | selective drug sensitivity score (COG-LL-332h) | selective drug sensitivity score (MOLT-4) | selective drug sensitivity score (RCH-ACV) | selective drug sensitivity score (REH) | selective drug sensitivity score (KASUMI-10) | selective drug sensitivity score (CCRF-HSB2)
1 | CC(=O)Nc1ccc(C(=O)Nc2ccccc2N)cc1 [Tacedinaline] (top concentration 1000 nM) | 1.58 | -0.02 | 0.38 | -0.02 | 0.68 | 1.18 | 1.98 | -0.02 | -0.02 | -0.02 | 0.68 | -0.02 | 1.88 | -0.02 | -0.02 | 0.08 | 0.48 | -0.02 | 0.98 | 2.98
2 | Cn1ncnc1[C@H]1c2n[nH]c(=O)c3cc(F)cc(c23)N[C@@H]1c1ccc(F)cc1 [Talazoparib] (top concentration 1000 nM) | 20.3 | 10.5 | 11.1 | 19.1 | -0.22 | 3.18 | 21.3 | -3.62 | 3.48 | -4.92 | -0.52 | 8.78 | 15.8 | -4.92 | 6.58 | 9.68 | 10.7 | -3.72 | 3.38 | 7.68
3 | COc1cccc2c1c(O)c(C(=O)N(C)c1ccc(C(F)(F)F)cc1)c(=O)n2C [Tasquinimod] (top concentration 10000 nM) | -0.42 | -0.42 | -0.42 | -0.42 | -0.42 | -0.42 | 16.6 | -0.32 | 1.08 | 1.58 | -0.42 | -0.42 | -0.42 | -0.42 | 0.48 | -0.42 | -0.42 | -0.42 | -0.42 | 2.38
4 | Nc1nc2[nH]cnc2c(=S)[nH]1 [Thioguanine] (top concentration 10000 nM) | -1.36 | 15.7 | 6.34 | 15.2 | 12.4 | 12.4 | 18.6 | 12 | 13.1 | 5.54 | 13.6 | 8.64 | 8.84 | 11.2 | 14.5 | 14.2 | 14.3 | 10.8 | 5.24 | 14.7
5 | CC#CC(=O)N1CC[C@@H](n2c(=O)n(-c3ccc(Oc4ccccc4)cc3)c3c(N)ncnc32)C1 [Tirabrutinib] (top concentration 1000 nM) | 1.7 | 0 | 5.2 | 0.9 | 0 | 0.7 | 3.7 | 0 | 2.3 | 0 | 0 | 3.7 | 0 | 0 | 1.8 | 0 | 11 | 0 | 0 | 0.8
6 | CC(C)C[C@@H](C(=O)N[C@H](C(=O)OC1CCCC1)c1ccccc1)[C@H](O)C(=O)NO [Tosedostat] (top concentration 10000 nM) | 15.3 | 6.46 | -0.74 | 10.4 | 2.16 | 2.26 | 3.96 | 5.66 | 5.16 | -5.24 | -0.24 | 0.86 | -1.54 | -4.94 | 2.26 | -0.54 | 2.16 | -0.64 | 7.06 | 3.16
7 | CS(=O)(=O)c1ccc(-c2cnc(N)c(C(=O)Nc3ccccc3)n2)cc1 [VE-821] (top concentration 10000 nM) | -0.06 | 0.74 | 0.34 | 7.94 | 1.64 | 4.64 | 11.2 | -0.56 | -0.66 | 0.64 | 3.14 | -0.66 | -0.66 | 5.04 | 4.74 | 3.94 | 7.94 | 7.14 | 2.54 | 4.44
8 | CNC(=O)c1ccccc1Nc1cc(Nc2ccc(N3CCOCC3)cc2OC)ncc1C(F)(F)F [VS-4718] (top concentration 10000 nM) | -5 | 1.1 | -4.5 | 6.1 | 1.1 | -3 | -5 | -0.3 | -0.9 | -5 | 1.7 | 8.7 | 0.7 | 1.7 | -0.3 | 1.9 | 0.8 | -1.1 | 11.2 | 3.5
9 | Cc1cccc(-c2[nH]c(CNc3ccccc3F)nc2-c2ccc3ncnn3c2)n1 [Vactosertib (TEW-7197)] (top concentration 2500 nM) | -0.5 | 0.8 | 1.1 | 10.7 | 0 | -0.1 | 7.2 | -0.5 | 3 | -0.5 | -0.5 | -0.4 | -0.5 | -0.5 | -0.2 | 2.3 | -0.5 | -0.5 | -0.5 | 5.1
10 | O=C(/C=C\n1cnc(-c2cc(C(F)(F)F)cc(C(F)(F)F)c2)n1)NNc1ccccn1 [Verdinexor] (top concentration 1000 nM) | 20.5 | 13.3 | 9.34 | 11.1 | 8.74 | 1.94 | 11.3 | 6.54 | 11.6 | -6.96 | 5.64 | 0.64 | 6.34 | 1.84 | 7.74 | 9.74 | 9.04 | 4.44 | 1.54 | 9.84
11 | CC[C@@H]1C(=O)N(C)c2cnc(Nc3ccc(C(=O)N[C@H]4CC[C@H](N5CCN(CC6CC6)CC5)CC4)cc3OC)nc2N1C(C)C [Volasertib] (top concentration 1000 nM) | 2.9 | 13.4 | 11 | 12.7 | 11.7 | 13.4 | 14.9 | 13.6 | 11.2 | -7 | 11.5 | 12.3 | 12.1 | 15.5 | 12 | 11.3 | 13.9 | 12.8 | 8 | 12.4
12 | O=C(CCCCCCC(=O)Nc1ccccc1)NO [Vorinostat] (top concentration 10000 nM) | 14.1 | 9.6 | 10.2 | 15.5 | 3.6 | 8.2 | 11.5 | 4.1 | 2.2 | -2.6 | 6.6 | -3.5 | 10.1 | 6 | 3.4 | 5.8 | 16.5 | 4.5 | 4.6 | 4.8
